From patent US8802694B2, “3,6-diazabicyclo[3.1.1]heptanes as neuronal nicotinic acetycholine receptor ligands” (Targacept, Inc., priority 2009, dated 2014) come the findings set out here.

The target of test [1] is T1, α6β3β4α5 (Homo sapiens, UniProt P30926+Q15825).
T1 construct: host or cells: SH-EP1
Put plainly: Competition binding to α6β3β4α5 receptors in membranes of SH-EP1/α6β3β4α5 cells ([3H]-epibatidine). The conditions noted are these: membrane competition binding, read-out: α6β3β4α5 Ki.

Test [2] concerns the target T2, Human α4β2 (Homo sapiens, UniProt P17787+P43681).
T2 construct: host or cells: SH-EP1
Put plainly: Competition binding to human α4β2 receptors in membranes of SH-EP1/human α4β2 cells ([3H]-nicotine). The conditions noted are these: membrane competition binding.

Test [3] concerns the target T3, Rat α4β2 (Rattus norvegicus, UniProt P09483+P12390).
T3 construct: Rat cortices were obtained from Analytical Biological Services; tissue Analytical Biological Services, Incorporated (ABS, Wilmington, Del.); host or cells: rat cortex (female Sprague-Dawley)
In words: Competition binding to rat α4β2 receptors in rat cortical membranes. The note with it: rat cortex membranes. The protocol:
Preparation of membranes from rat tissues. Rat cortices were obtained from Analytical Biological Services, Incorporated (ABS, Wilmington, Del.). Tissues were dissected from female Sprague-Dawley rats, frozen and shipped on dry ice. Tissues were stored at −20° C. until needed for membrane preparation. […] The resulting homogenate was centrifuged at 40,000 g for 20 minutes at 4° C. and the resulting pellet was resuspended in 20 volumes of ice-cold water. After 60-minute incubation at 4° C., a new pellet was collected by centrifugation at 40,000 g for 20 minutes at 4° C. The final pellet was resuspended in preparative buffer and stored at −20° C. On the day of the assay, tissue was thawed, centrifuged at 40,000 g for 20 minutes and then resuspended in PBS (Dulbecco's Phosphate Buffered Saline, Life Technologies, pH 7.4) to a final concentration of 2-3 mg protein/mL. Protein concentrations were determined using the Pierce BCA Protein Assay kit (Pierce Biotechnology, Rockford, Ill.), with bovine serum albumin as the standard.
Competition binding to receptors in membrane preparations. […] In brief, membranes were reconstituted from frozen stocks (approximately 0.2 mg protein) and incubated for 2 h on ice in […] assay buffer (PBS) in the presence of competitor compound (0.001 nM to […]) and radioligand. [^3H]-nicotine (L-(−)-[N-methyl-3H]-nicotine, 69.5 Ci/mmol, Perkin-Elmer Life Sciences) was used for human α4β2 binding studies. [^3H]-epibatidine (52 Ci/mmol, Perkin-Elmer Life Sciences) was used for binding studies at the other receptor subtypes. […] Filters were washed 3 times and the radioactivity retained was determined by liquid scintillation counting.
Binding data analysis. Binding data were expressed as percent total control binding. Replicates for each point were averaged and plotted against the log of drug concentration.

Like-named read-outs stand apart in the source and are kept apart here.

Usually Ki stands for the dissociation constant of the complex between target and ligand, obtained from inhibition or displacement. For `O=C([C@H]1CCCO1)N1C2CNCC1C2`, the Ki was determined as 1.1 µM in test [1] and 0.39 µM in test [2] (read-out: Human α4β2 Ki). Consider `CC(C)CC(=O)N1CC2CC(C1)N2`, for which the Ki worked out at 0.07 µM in test [3] (Rat α4β2 Ki) and 0.034 µM in test [2] (Human α4β2 Ki). As to `Cc1cc(C(=O)N2C3CNCC2C3)no1`, the inhibitory constant (Ki) in test [3] (Rat α4β2 Ki) stood at 0.05 µM; in test [2] (Human α4β2 Ki), 0.1 µM.

For the compound `O=C(c1cc(Cl)cc(Cl)c1)N1CC2CC(C1)N2`, in test [2] (read-out: Human α4β2 Ki), the Ki came to 3.3 µM. Compound `CC(=O)N1CC2CC(C1)N2` [3-methylcarbonyl-3,6-diazabicyclo[3.1.1]heptane] had a Ki in test [2] (Human α4β2 Ki) of 0.17 µM.

As to `CC(=O)NCCC(=O)N1CC2CC(C1)N2`, in test [2] (read-out: Human α4β2 Ki), the inhibitory constant (Ki) came out at 3.4 µM. On to `Cn1c(C(=O)N2C3CNCC2C3)cc2ccccc21`, for which the inhibitory constant (Ki) in test [2] (read-out: Human α4β2 Ki) came out at 2.9 µM.

In the case of `C[C@@H]1C(C(=O)N2C3CNCC2C3)[C@@H]1C` (some centres unmarked), the results for the inhibition constant (Ki) in test [1] and in test [2] (read-out: Human α4β2 Ki) were 2.4 µM and 0.61 µM, respectively. Turning to `O=C(CC1CCOCC1)N1C2CNCC1C2`, in test [2] (read-out: Human α4β2 Ki), the Ki was 3.3 µM. With `CCC[C@H]1C[C@H]1C(=O)N1C2CNCC1C2`, the inhibition constant Ki worked out at 1.1 µM in test [1] and 0.57 µM in test [2] (read-out: Human α4β2 Ki). For the compound `O=C([C@@H]1CCCO1)N1CC2CC(C1)N2`, the Ki in test [2] (read-out: Human α4β2 Ki) was found to be 0.37 µM.

`O=C(NCc1ccc(Cl)cc1)N1C2CNCC1C2`: the inhibition constant (Ki) was 3.4 µM in test [1] and 6.5 µM in test [2] (read-out: Human α4β2 Ki). For the compound `O=C(c1ccc(Br)o1)N1C2CNCC1C2` [6-(2-bromorofuran-5-yl)carbonyl-3,6-diazabicyclo[3.1.1]heptane], the inhibition constant Ki in test [3] (read-out: Rat α4β2 Ki) was 0.26 µM; in test [2] (Human α4β2 Ki), 0.066 µM. On to `O=C([C@@H]1CCCO1)N1C2CNCC1C2`, for which the Ki in test [2] (read-out: Human α4β2 Ki) was determined as 0.75 µM. For `Cc1nocc1C(=O)N1C2CNCC1C2`, in test [2] (read-out: Human α4β2 Ki), the Ki came out at 1.1 µM. Regarding `O=C(C1CCOCC1)N1C2CNCC1C2`, the inhibition constant Ki in test [2] (read-out: Human α4β2 Ki) came out at 2 µM. Take `CC1(C)C(C(=O)N2C3CNCC2C3)C1(C)C`: the Ki in test [2] (read-out: Human α4β2 Ki) was determined as 11 µM. For the compound `O=C(C1CC2CCC1C2)N1C2CNCC1C2` (centres unmarked), in test [2] (read-out: Human α4β2 Ki), the Ki was found to be 1.7 µM.

As for `CC(C)CC(=O)N1C2CNCC1C2`, the Ki in test [3] (Rat α4β2 Ki) came out at 0.059 µM; in test [2] (read-out: Human α4β2 Ki), 0.12 µM. For `COCC(=O)N1C2CNCC1C2`, the Ki in test [2] (read-out: Human α4β2 Ki) was 0.41 µM.

On to `O=C(c1ccnc(Cl)c1)N1CC2CC(C1)N2`, for which the Ki in test [2] (read-out: Human α4β2 Ki) is 0.45 µM.

In the case of `O=C([C@H]1C[C@H]1F)N1C2CNCC1C2`, the inhibition constant (Ki) was determined as 0.00089 µM in test [3] (Rat α4β2 Ki) and 0.0037 µM in test [2] (Human α4β2 Ki). As for `Cc1cc(C(=O)N2CC3CC(C2)N3)no1`, the Ki in test [2] (read-out: Human α4β2 Ki) stood at 1.1 µM. With `CC(C)OC(=O)N1CC2CC(C1)N2` [3-isopropoxycarbonyl-3,6-diazabicyclo[3.1.1]heptane], the Ki in test [2] (read-out: Human α4β2 Ki) is 0.13 µM.

Regarding `CO[C@H](C(=O)N1C2CNCC1C2)c1ccccc1`, in test [2] (read-out: Human α4β2 Ki), the Ki turned out to be 7.1 µM. For `Cc1nocc1C(=O)N1CC2CC(C1)N2`, the Ki in test [3] (Rat α4β2 Ki) turned out to be 0.06 µM; in test [2] (Human α4β2 Ki), 0.053 µM. With `CC1CC1C(=O)N1C2CNCC1C2` (centres unmarked), the Ki in test [3] (Rat α4β2 Ki) is 0.034 µM; in test [2] (Human α4β2 Ki), 0.046 µM. Regarding `COCCC(=O)N1C2CNCC1C2` [6-(2-methoxyethyl)carbonyl-3,6-diazabicyclo[3.1.1]heptane], the inhibitory constant (Ki) in test [2] (read-out: Human α4β2 Ki) came out at 0.37 µM. On the same count and under the same terms, with `O=C(C1CCCC1)N1C2CNCC1C2` the figure was 0.42 µM.

With `CO[C@H](C(=O)N1CC2CC(C1)N2)c1ccccc1`, the Ki in test [2] (read-out: Human α4β2 Ki) is 0.95 µM. With `COCCC(=O)N1CC2CC(C1)N2` [3-(2-methoxyethyl)carbonyl-3,6-diazabicyclo[3.1.1]heptane], in test [2] (Human α4β2 Ki), affinity was put at a Ki of 0.072 µM. `O=C(c1cnco1)N1C2CNCC1C2`: the inhibition constant Ki amounted to 0.017 µM in test [3] (Rat α4β2 Ki) and 0.072 µM in test [2] (Human α4β2 Ki).

As for `O=C([C@H]1C[C@@H]1F)N1C2CNCC1C2`, the values for the Ki in test [3] (Rat α4β2 Ki) and in test [2] (Human α4β2 Ki) were 0.001 µM and 0.0022 µM, respectively. Turning to `COCCOC(=O)N1CC2CC(C1)N2` [3-methoxyethoxycarbonyl-3,6-diazabicyclo[3.1.1]heptane], in test [2] (read-out: Human α4β2 Ki), the inhibition constant (Ki) turned out to be 0.12 µM. For `COCC(=O)N1CC2CC(C1)N2`, the Ki was 0.05 µM in test [3] (Rat α4β2 Ki) and 0.079 µM in test [2] (Human α4β2 Ki). Take `O=C(C1CNC1)N1CC2CC(C1)N2`: in test [2] (read-out: Human α4β2 Ki), the inhibition constant (Ki) was found to be 0.43 µM. For `O=C(CCOc1ccc(F)cc1)N1C2CNCC1C2`, the Ki in test [2] (read-out: Human α4β2 Ki) was 1.2 µM. Consider `O=C(COCc1ccccc1)N1CC2CC(C1)N2`, for which the Ki in test [2] (read-out: Human α4β2 Ki) is 1 µM.

Turning to `CCCOC(=O)N1CC2CC(C1)N2` [3-propoxycarbonyl-3,6-diazabicyclo[3.1.1]heptane], in test [2] (Human α4β2 Ki), the Ki worked out at 0.024 µM. As for `O=C(CC1C=CCC1)N1CC2CC(C1)N2` (centres unmarked), the results for the Ki in test [3] (Rat α4β2 Ki) and in test [2] (Human α4β2 Ki) were 0.034 µM and 0.011 µM, respectively. For the compound `Cn1c(C(=O)N2CC3CC(C2)N3)cc2ccccc21`, the inhibition constant Ki in test [2] (read-out: Human α4β2 Ki) is 0.42 µM.
